As usually defined, the IC50 is the concentration needed to halve the response being measured.

Structures can show the parent of a compound that is named as a salt. Where two headings read alike, the source gives them in different places. A value given as a limit tells only on which side of the number the result lay.

This is an account of results in patent US9487529B2, “Macrocyclic compounds as ALK, FAK and JAK2 inhibitors” (Cephalon, Inc., priority 2011, dated 2016).

Holding throughout (assay type): biochemical
One test has as its target T1, recombinant human FAK (Homo sapiens, UniProt Q05397).
T1 construct: purchased Invitrogen PV3832; host or cells: baculovirus expression system
The test is described as follows: FAK Enzyme Assay (TRF detection). The settings on record: 10 μM ATP; average of two or more determinations; class symbols. The protocol:
Example compounds were tested for their ability to inhibit the kinase activity of baculovirus-expressed recombinant human FAK using the TRF detection system as described above for JAK2. IC50 runs were performed in 96-well Costar high binding plates (#3922). The plates were coated first with 100 μL/well of 10 μg/mL neutravidin in TBS at 37° C. for 2 h, followed by 100 μL/well of 1 μg/mL 15-mer peptide substrate (biotinyl-amino-hexanoyl-EQEDEPEGDYFEWLE-amide) at 37° C. for another hour. The FAK assay mixture (total volume=100 μL/well) consisting of 20 mM HEPES, pH 7.2, 10 μM ATP, 5 mM MgCl2, 0.5 mM DTT, 0.1% BSA, and test compound (diluted in DMSO; 2.5% DMSO final in assay) was then added to the assay plate. Enzyme (10 ng/mL FAK, Invitrogen #PV3832) was added and the reaction was allowed to proceed at room temperature for 30 minutes. Detection of the phosphorylated product was performed by adding 100 μL/well of Eu—N1 labeled PY100 antibody (diluted 1:75000 in antibody dilution buffer). Samples were incubated at room temperature for 1 hour, followed by addition of 100 μL enhancement solution. Plates were agitated for 10 minutes and fluorescence of the resulting solution measured using the PerkinElmer EnVision™ 2102 (or 2104) multi-label plate reader.
(§1) Data analysis was performed using ActivityBase (IDBS, Guilford, UK). IC50 values were calculated by plotting percent inhibition versus log10 of the concentration of compound and fitting to the nonlinear regression sigmoidal dose-response (variable slope) equation in XLFit (IDBS, Guilford, UK).

In test [1] the target is T2, baculovirus-expressed JAK2 (Homo sapiens, UniProt O60674).
T2 construct: host or cells: baculovirus expression system
T2 sequence (O60674 whole entry): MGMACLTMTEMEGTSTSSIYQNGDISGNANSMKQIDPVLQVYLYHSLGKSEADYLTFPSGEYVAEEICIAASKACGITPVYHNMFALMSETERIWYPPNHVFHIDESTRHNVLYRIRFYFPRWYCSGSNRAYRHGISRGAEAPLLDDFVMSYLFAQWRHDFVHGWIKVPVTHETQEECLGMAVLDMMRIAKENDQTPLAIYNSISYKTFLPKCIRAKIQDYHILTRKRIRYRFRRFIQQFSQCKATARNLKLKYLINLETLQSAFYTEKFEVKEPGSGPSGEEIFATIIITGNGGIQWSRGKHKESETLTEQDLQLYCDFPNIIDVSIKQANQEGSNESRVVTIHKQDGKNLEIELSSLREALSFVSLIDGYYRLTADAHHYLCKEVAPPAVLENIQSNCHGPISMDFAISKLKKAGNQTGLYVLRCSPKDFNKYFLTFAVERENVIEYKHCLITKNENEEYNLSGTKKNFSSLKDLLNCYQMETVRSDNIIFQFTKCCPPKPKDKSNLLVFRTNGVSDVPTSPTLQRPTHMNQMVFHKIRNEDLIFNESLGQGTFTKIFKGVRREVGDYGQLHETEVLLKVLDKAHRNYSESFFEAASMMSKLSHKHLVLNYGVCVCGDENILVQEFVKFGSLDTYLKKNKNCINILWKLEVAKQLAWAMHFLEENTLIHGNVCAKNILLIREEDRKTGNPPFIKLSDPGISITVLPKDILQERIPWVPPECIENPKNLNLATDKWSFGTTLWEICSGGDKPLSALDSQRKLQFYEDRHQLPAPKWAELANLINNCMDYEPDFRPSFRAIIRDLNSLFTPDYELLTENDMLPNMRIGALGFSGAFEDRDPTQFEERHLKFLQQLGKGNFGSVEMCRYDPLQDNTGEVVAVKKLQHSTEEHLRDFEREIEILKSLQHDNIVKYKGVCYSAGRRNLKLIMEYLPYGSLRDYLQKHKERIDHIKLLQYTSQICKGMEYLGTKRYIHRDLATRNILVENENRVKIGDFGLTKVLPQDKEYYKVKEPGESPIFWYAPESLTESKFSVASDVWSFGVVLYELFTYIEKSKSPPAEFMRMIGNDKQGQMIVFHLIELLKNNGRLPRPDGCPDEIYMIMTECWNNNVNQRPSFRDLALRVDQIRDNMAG
Nature of the test: JAK2 Kinase Assay (TRF detection). The note with it: 0.2 μM ATP; average of two or more determinations; class symbols. The protocol:
Compounds were tested for their ability to inhibit the kinase activity of baculovirus-expressed JAK2 using the TRF detection system. IC50 runs were conducted in 96-well Costar high binding plates (Corning Costar #3922, Corning, N.Y.). The plates were coated first with 100 μL/well of 10 μg/mL Neutravidin (Pierce #31000, Rockford, Ill.) in TBS at 37° C. for 2 hours, followed by 100 μL/well of 1 μg/mL 15-mer peptide substrate (biotinyl-amino-hexanoyl-EQEDEPEGDYFEWLE-amide, Infinity Biotech Research and Resource, Aston, Pa.) at 37° C. for another hour. The JAK2 assay mixture (total volume=100 μL/well) consisting of 20 mM HEPES, pH 7.2, 0.2 μM ATP, 1 mM MnCl2, 0.1% BSA, and test compound (diluted in DMSO; 2.5% DMSO final in assay) was then added to the assay plate. Enzyme (15 ng/ml JAK2) was added and the reaction was allowed to proceed at room temperature for 20 minutes. Detection of the phosphorylated product was performed by adding 100 μL/well of Eu—N1 labeled PY100 antibody (PerkinElmer Life Sciences #AD0041, Boston, Mass.). Incubation at the room temperature then proceeded for 1 hour, followed by addition of 100 μl enhancement solution (PerkinElmer Life Sciences #1244-105, Boston, Mass.). The plate was gently agitated and after thirty minutes, the fluorescence of the resulting solution was measured using the PerkinElmer EnVision™ 2102 (or 2104) multi-label plate reader.
as §1

Test [2] has as its target T3, baculovirus-expressed ALK (Homo sapiens, UniProt Q9UM73).
T3 construct: host or cells: baculovirus expression system
Nature of the test: ALK Kinase Assay (ELISA/TRF). The note with it: 1 μM ATP (Km level); average of two or more determinations; class symbols. How it is done: Briefly, each 96-well plate was coated with 100 μL/well of 10 μg/mL substrate (GST-PLC-γ) in Tris-buffered saline (TBS). […] The reaction was initiated by adding enzyme (30 ng/mL ALK) and was allowed to proceed at 37° C. for 15 minutes. Detection of the phosphorylated product was performed by adding 100 μL/well of Eu—N1 labeled PT66 antibody (Perkin Elmer #AD0041). […] Data analysis was performed using ActivityBase (IDBS, Guilford, UK). IC50 values were calculated by plotting percent inhibition versus log10 of the concentration of compound and fitting to the nonlinear regression sigmoidal dose-response (variable slope) equation in XLFit (IDBS, Guilford, UK).
In general terms: ELISA stands for enzyme-linked immunosorbent assay.

Test [3] concerns the target T4, human insulin receptor cytoplasmic domain (βIRCD) (Homo sapiens, UniProt P06213).
T4 construct: human insulin receptor cytoplasmic domain (βIRCD); host or cells: baculovirus expression system
The test is described as follows: Insulin Receptor Kinase Assay (TRF). The settings on record: 20 μM ATP, read-out: IR IC50. The protocol:
Example compounds were tested for their ability to inhibit the kinase activity of baculovirus-expressed human insulin receptor cytoplasmic domain (βIRCD) using the TRF assay as described above for ALK. Phosphorylation of the substrate, recombinant GST-PLC-γ, was detected with a europium-labeled anti-phosphotyrosine antibody and measured by TRF. Each 96-well plate (Greiner#655074) was coated with 100 μL/well of 20 μg/mL substrate solution in TBS. The IR assay mixture (total volume=100 μL/well) consisting of 20 mM HEPES (pH 7.2), 20 μM ATP, 5 mM MnCl2, 0.1% BSA, and test compound (diluted in DMSO; 2.5% DMSO final in assay) was added to the assay plates. Enzyme (20 ng/mL βIRCD) was added and the reaction was allowed to proceed at room temperature for 20 minutes. Detection of the phosphorylated product was performed by adding 100 μL/well of Eu—N1 labeled PY100 antibody (PerkinElmer#AD0160; diluted 1:10,000 in TBS-T containing 0.25% BSA). Incubation at 37° C. for 1 hour was followed by addition of 50 μL enhancement solution (Wallace#1244-105). Plates were agitated for 10 minutes and the fluorescence was measured using the PerkinElmer EnVision™ 2102 or 2104 multi-label plate reader.
as §1

Setting [4] is: average of two or more determinations, class symbols.

T1 sequence (Q05397 whole entry): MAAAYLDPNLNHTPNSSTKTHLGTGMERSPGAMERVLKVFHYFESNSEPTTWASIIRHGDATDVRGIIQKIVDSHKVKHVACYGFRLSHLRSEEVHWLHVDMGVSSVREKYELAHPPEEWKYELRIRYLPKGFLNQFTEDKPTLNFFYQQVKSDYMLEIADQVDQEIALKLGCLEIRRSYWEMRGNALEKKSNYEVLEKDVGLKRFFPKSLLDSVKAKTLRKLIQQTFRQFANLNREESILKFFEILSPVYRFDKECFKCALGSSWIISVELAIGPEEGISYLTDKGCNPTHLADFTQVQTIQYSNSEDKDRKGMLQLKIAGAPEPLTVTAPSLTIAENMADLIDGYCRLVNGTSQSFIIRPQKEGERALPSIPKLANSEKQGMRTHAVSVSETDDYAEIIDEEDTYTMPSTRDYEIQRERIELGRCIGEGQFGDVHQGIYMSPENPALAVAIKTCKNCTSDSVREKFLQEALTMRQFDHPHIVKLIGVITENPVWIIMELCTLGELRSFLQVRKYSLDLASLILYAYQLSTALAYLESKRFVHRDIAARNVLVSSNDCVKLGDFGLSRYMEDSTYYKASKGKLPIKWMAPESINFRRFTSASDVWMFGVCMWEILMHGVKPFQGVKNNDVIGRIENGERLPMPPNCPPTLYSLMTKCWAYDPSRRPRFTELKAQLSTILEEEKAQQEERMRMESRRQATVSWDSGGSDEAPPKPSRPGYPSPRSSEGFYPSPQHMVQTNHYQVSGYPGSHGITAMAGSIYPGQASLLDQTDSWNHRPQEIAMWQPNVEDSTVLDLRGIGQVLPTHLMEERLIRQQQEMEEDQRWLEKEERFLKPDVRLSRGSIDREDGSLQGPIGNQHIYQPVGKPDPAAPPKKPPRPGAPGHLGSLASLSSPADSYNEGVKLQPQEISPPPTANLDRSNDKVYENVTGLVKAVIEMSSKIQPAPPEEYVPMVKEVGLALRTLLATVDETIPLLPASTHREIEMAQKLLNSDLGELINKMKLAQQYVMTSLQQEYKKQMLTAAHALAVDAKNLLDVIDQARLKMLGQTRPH
T4 sequence (P06213 980-1382 limits assumed): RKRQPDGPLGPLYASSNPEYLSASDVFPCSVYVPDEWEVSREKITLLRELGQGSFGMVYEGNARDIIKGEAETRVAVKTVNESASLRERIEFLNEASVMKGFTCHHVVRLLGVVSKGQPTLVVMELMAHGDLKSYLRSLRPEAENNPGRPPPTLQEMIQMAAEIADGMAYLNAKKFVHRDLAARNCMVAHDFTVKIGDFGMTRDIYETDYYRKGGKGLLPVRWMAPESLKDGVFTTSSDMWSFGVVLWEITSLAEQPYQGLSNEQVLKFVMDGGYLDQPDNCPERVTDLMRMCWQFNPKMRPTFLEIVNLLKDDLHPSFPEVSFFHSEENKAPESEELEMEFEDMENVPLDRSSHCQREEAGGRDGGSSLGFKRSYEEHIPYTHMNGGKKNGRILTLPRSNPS
T3 sequence (Q9UM73 19-1620): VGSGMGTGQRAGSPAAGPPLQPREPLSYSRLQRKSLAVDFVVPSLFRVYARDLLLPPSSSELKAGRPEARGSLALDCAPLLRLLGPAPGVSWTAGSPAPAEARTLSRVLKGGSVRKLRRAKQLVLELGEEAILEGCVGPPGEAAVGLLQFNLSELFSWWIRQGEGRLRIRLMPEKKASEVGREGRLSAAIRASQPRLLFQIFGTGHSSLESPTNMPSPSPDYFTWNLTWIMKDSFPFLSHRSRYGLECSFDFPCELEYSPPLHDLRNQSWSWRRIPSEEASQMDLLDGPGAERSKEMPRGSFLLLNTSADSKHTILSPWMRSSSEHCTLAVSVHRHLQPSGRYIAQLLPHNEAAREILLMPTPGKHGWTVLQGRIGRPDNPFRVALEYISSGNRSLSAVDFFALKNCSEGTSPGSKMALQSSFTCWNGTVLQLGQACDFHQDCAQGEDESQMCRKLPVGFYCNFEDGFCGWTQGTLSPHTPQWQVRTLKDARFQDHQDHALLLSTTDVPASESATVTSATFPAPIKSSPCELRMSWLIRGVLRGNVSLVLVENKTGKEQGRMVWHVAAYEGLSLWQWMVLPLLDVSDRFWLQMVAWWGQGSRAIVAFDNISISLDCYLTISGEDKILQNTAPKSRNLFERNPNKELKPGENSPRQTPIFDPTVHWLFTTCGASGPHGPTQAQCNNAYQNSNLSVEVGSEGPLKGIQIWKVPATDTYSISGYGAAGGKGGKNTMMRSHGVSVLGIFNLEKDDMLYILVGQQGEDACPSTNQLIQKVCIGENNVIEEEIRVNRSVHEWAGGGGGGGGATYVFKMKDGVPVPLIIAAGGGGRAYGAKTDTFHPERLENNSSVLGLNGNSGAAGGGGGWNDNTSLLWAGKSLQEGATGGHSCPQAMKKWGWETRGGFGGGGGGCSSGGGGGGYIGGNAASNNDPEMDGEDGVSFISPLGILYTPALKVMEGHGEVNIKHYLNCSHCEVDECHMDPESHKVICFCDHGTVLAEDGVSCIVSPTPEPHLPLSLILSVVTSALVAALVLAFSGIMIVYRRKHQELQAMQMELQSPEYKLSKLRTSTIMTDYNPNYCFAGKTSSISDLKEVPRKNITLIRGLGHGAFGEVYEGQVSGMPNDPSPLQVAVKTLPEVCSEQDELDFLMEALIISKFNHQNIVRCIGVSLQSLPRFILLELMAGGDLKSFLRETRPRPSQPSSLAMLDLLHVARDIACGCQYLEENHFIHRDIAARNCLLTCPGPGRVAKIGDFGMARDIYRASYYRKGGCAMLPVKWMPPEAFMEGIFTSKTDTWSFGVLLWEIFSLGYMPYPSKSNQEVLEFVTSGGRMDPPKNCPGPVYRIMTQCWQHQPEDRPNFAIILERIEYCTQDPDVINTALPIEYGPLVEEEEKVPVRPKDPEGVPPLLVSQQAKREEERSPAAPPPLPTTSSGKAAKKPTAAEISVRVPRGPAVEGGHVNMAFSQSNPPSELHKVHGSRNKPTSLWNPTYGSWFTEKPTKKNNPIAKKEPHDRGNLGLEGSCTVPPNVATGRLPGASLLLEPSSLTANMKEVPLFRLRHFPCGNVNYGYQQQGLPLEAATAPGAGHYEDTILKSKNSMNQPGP

Consider `O=C1Nc2cccc(c2)Nc2ncc(Cl)c(n2)Nc2cccc1c2` [Example 1, 6,13,19-Triaza-4-chloro-7,14^1,3-dibenzena-1^2,4-pyrimidinacyclodocosaph-12-one], for which the IC50 was above 10 µM on recombinant human FAK, 0.101 to 1 µM in test [1] and above 10 µM in test [2].

Regarding `CN1CCN(c2ccc3cc2/C=C\c2cccc(c2)Nc2nc(ncc2Cl)N3)CC1` [Example 2, (14Z)-6-Chloro-17-(4-methylpiperazin-1-yl)-2,4,8,22-tetraazatetracyclo[14.3.1.1^3,7.1^9,13]docosa-1(20),3(22),4,6,9(21),10,12,14,16,18-decaene], the results for the IC50 (on recombinant human FAK; in test [1]; in test [3] (setting [4])) were 0.101 to 1 µM, below 0.01 µM and 1 to 10 µM, respectively.

For `CN1CCN(c2ccc3cc2CCc2cccc(c2)Nc2nc(ncc2Cl)N3)CC1` [Example 3, 6-Chloro-17-(4-methylpiperazin-1-yl)-2,4,8,22-tetraazatetracyclo[14.3.1.1^3,7.1^9,13]docosa-1(20),3(22),4,6,9(21),10,12,16,18-nonaene Trifluoroacetate (1:1)], the IC50 was 0.101 to 1 µM at recombinant human FAK, below 0.01 µM in test [1] and 0.101 to 1 µM in test [3] (setting [4]).

For the compound `COc1cc(N2CCN(C)CC2)c2cc1Nc1ncc(Cl)c(n1)Nc1cc(ccc1N(C)S(C)(=O)=O)CC2` [Example 5, 6-Chloro-10-(2-methanesulfonyl-methyl-amino)-17-(4-methylpiperazin-1-yl)-19-methoxy-2,4,8,22-tetraazatetracyclo[14.3.1.1^3,7.1^9,13]docosa-1(20),3(22),4,6,9(21),10,12,16,18-nonaene Trifluoroacetate (1:1)], the IC50 at recombinant human FAK is below 0.01 µM; in test [1], 0.01 to 0.1 µM; in test [3] (setting [4]), 0.01 to 0.1 µM.

As to `COc1cc(N2CCN(C)CC2)c2cc1Nc1ncc(Cl)c(n1)Nc1cc(ccc1S(=O)(=O)C(C)C)CC2` [Example 6, 6-Chloro-10-(propane-2-sulfonyl)-17-(4-methylpiperazin-1-yl)-19-methoxy-2,4,8,22-tetraazatetracyclo[14.3.1.1^3,7.1^9,13]docosa-1(20),3(22),4,6,9(21),10,12,16,18-nonaene Trifluoroacetate (1:1)], the IC50 on recombinant human FAK was below 0.01 µM; in test [1] it was 0.101 to 1 µM; in test [3] (setting [4]), 0.01 to 0.1 µM.

Consider `CN1CCN(c2ccc3cc2CCc2ccc(N(C)S(C)(=O)=O)c(c2)Nc2nc(ncc2Cl)N3)CC1` [Example 10, 6-Chloro-10-(2-methanesulfonyl-methyl-amino)-17-(4-methylpiperazin-1-yl)-2,4,8,22-tetraazatetracyclo[14.3.1.1^3,7.1^9,13]docosa-1(20),3(22),4,6,9(21),10,12,16,18-nonaene Trifluoroacetate (1:1)], for which the IC50 was below 0.01 µM on recombinant human FAK, below 0.01 µM in test [1] and 0.101 to 1 µM in test [3] (setting [4]).

In the case of `COc1ccc2cc1Nc1nc(ncc1Cl)Nc1ccc(N3CCN(C)CC3)c(c1)/C=C\2` [Example 13, (14Z)-6-Chloro-10-methoxy-17-(4-methylpiperazin-1-yl)-2,4,8,22-tetraazatetracyclo[14.3.1.1^3,7.1^9,13]docosa-1(20),3(22),4,6,9(21),10,12,14,16,18-decaene], the values for the IC50 (at recombinant human FAK; in test [1]; in test [3] (given as numeric bound)) were 0.101 to 1 µM, 0.01 to 0.1 µM and above 3 µM, respectively.

In the case of `COc1ccc2cc1Nc1nc(ncc1Cl)Nc1ccc(N3CCN(C)CC3)c(c1)CC2` [Example 14, 6-Chloro-10-methoxy-17-(4-methylpiperazin-1-yl)-2,4,8,22-tetraazatetracyclo[14.3.1.1^3,7.1^9,13]docosa-1(20),3(22),4,6,9(21),10,12,16,18-nonaene Trifluoroacetate (1:1)], the results for the IC50 (on recombinant human FAK; in test [1]; in test [3] (setting [4])) were 0.01 to 0.1 µM, below 0.01 µM and 0.101 to 1 µM, respectively.

Regarding `COc1cc(N2CCN(C)CC2)c2cc1Nc1ncc(Cl)c(n1)Nc1cccc(c1)CC2` [Example 15, 6-Chloro-17-(4-methylpiperazin-1-yl)-19-methoxy-2,4,8,22-tetraazatetracyclo[14.3.1.1^3,7.1^9,13]docosa-1(20),3(22),4,6,9(21),10,12,16,18-nonaene Trifluoroacetate (1:1)], the values for the IC50 (on recombinant human FAK; in test [1]; in test [3] (setting [4])) were 0.101 to 1 µM, 0.01 to 0.1 µM and 0.101 to 1 µM, respectively.

Regarding `CNC(=O)c1ccc2cc1Nc1nc(ncc1Cl)Nc1ccc(N3CCN(C)CC3)c(c1)/C=C\2` [Example 16, (14Z)-6-Chloro-10-(N-methylcarboxamido)-17-(4-methylpiperazin-1-yl)-2,4,8,22-tetraazatetracyclo[14.3.1.1^3,7.1^9,13]docosa-1(20),3(22),4,6,9(21),10,12,14,16,18-decaene], the IC50 is 0.101 to 1 µM at recombinant human FAK, 0.01 to 0.1 µM in test [1] and 0.101 to 1 µM in test [2].

In the case of `CNC(=O)c1ccc2cc1Nc1nc(ncc1Cl)Nc1ccc(N3CCN(C)CC3)c(c1)CC2` [Example 17, 6-Chloro-10-(N-methylcarboxamido)-17-(4-methylpiperazin-1-yl)-2,4,8,22-tetraazatetracyclo[14.3.1.1^3,7.1^9,13]docosa-1(20),3(22),4,6,9(21),10,12,16,18-nonaene Trifluoroacetate (1:1)], the IC50 was below 0.01 µM on recombinant human FAK, below 0.01 µM in test [1] and 0.101 to 1 µM in test [3] (setting [4]).

Regarding `Clc1cnc2nc1Nc1cccc(c1)CCc1cc(ccc1OCCN1CCCC1)N2` [Example 23, 6-Chloro-17-[2-(pyrrolidin-1-yl)ethoxy]-2,4,8,22-tetraazatetracyclo[14.3.1.1^3,7.1^9,13]docosa-1(20),3(22),4,6,9(21),10,12,16,18-nonaene Trifluoroacetate (1:1)], the IC50 at recombinant human FAK is 0.01 to 0.1 µM; in test [1] it was below 0.01 µM; in test [3] (setting [4]), 0.101 to 1 µM.

For `CN1CCN(c2ccc3cc2[C@H](O)[C@H](O)c2cccc(c2)Nc2nc(ncc2Cl)N3)CC1` [Example 27, (14R,15S)-6-chloro-17-(4-methylpiperazin-1-yl)-2,4,8,22-tetraazatetracyclo[14.3.1.1^3,7.1^9,13]docosa-1(20),3(22),4,6,9(21),10,12,16,18-nonaene-14,15-diol], the values for the IC50 (at recombinant human FAK; in test [1]) were 1 to 10 µM and 0.01 to 0.1 µM, respectively.
